Values after ≈ are worked out from the molar mass of the structure shown. Where two headings read alike, the source gives them in different places. Positions of bridges follow the written chain, without caps; N, C: chain ends. Non-standard residues stand in square brackets, D forms with d. Residues, ends and D or L forms follow the SMILES beside them. 2Nal = N[C@@H](Cc1ccc2ccccc2c1)C(=O)O
What was measured:
[1] = test system: Pseudomonas aeruginosa (PSA, ATCC 27883); experiment: Synergy checkerboard assay (FIC index); type: cell-based; details: Table 26, Pseudomonas aeruginosa (ATCC 27883)
[2] = test system: Methicillin-resistant Staphylococcus aureus MRSA (ATCC BAA-1556); details: ATCC BAA-1556
[3] = test system: Pseudomonas aeruginosa (ATCC 27883); details: ATCC 27883
[4] = test system: Escherichia coli (ATCC 25922); details: ATCC 25922
[5] = test system: Klebsiella pneumoniae (ATCC BAA-1705); details: ATCC BAA-1705
[6] = test system: Methicillin-resistant Staphylococcus aureus MRSA (ATCC BAA-1556); details: ATCC BAA-1556; remark: listed apart in the source
[7] = test system: Pseudomonas aeruginosa (PSA, ATCC 27883); details: ATCC 27883
[8] = test system: Klebsiella pneumoniae (KPC, ATCC BAA-1705); details: ATCC BAA-1705
[9] = test system: Escherichia coli (E. Coli, ATCC 25922); details: ATCC 25922
MRSA (ATCC BAA-1556) = details: Table 26, MRSA (ATCC BAA-1556)
[10] = test system: Klebsiella pneumoniae (KPC, ATCC BAA-1705); details: Table 26, Klebsiella pneumoniae (ATCC BAA-1705)
[11] = test system: Escherichia coli (E. Coli, ATCC 25922); details: Table 26, Escherichia coli (ATCC 25922)
human red blood cells = test system: human red blood cells; design: unit not given beside the values
[12] = type: cell-based; details: Escherichia coli (ATCC 25922)
[13] = test system: Escherichia coli (ATCC 25922); type: cell-based
Experimental: (§1) All bacteria pathogens tested clinically reported multi-drug resistant strains. The antibacterial activity was tested against Gram-negative strains namely; Pseudomonas aeruginosa (PSA), Klebsiella pneumoniae (KPC), Escherichia coli (E. coli) and Gram-positive Methicillin-resistant Staphylococcus aureus (MRSA). The minimum inhibitory concentration (MIC) is the lowest concentration of the antibiotic that inhibits microbial growths. MIC is determined by visual inspection or use of spectrophotometer plate reader to determine media turbidity. On the other hand, the minimum bactericidal concentration (MBC) is the lowest concentration that kills […] of bacterial growth. Cytotoxicity of peptides in the hepatic cell line, human skin fibroblast cell line, heart/myocardium cells, and human lung fibroblast cells is shown in FIGS. 36-46). […] (IFX-315)-Au-NP with antibiotics are shown in FIGS. 49-58 when the gold nanoparticles are formed by the peptide followed by addition of the antibiotic. […] (IFX-301) with antibiotics (1:1 ratio) first and then used in the synthesis of Au-NP in antibacterial activities is shown in FIGS. 59-68.
(§2) The MBC is identified by determining the lowest concentration of antibacterial agent that reduces the viability (concentration of peptides necessary to achieve a bactericidal effect) of the initial bacterial inoculum by ≥99.9%.

[14] = test system: Klebsiella pneumoniae (ATCC BAA-1705); type: cell-based
Experimental: as §1, §2

[15] = test system: Methicillin-resistant Staphylococcus aureus MRSA (ATCC BAA-1556); type: cell-based
Experimental: as §1, §2

[16] = test system: Pseudomonas aeruginosa (ATCC 27883); type: cell-based; details: ATCC 27883
Experimental: as §1, §2

[17] = peptide in combination with antibiotics

| Compound | MIC MRSA ATCC BAA-1556 [2] [µg/mL] | MRSA (ATCC BAA-1556) MIC [6] [µg/mL] | Pseudomonas aeruginosa (ATCC 27883) MIC [7] [µg/mL] | Klebsiella pneumoniae (ATCC BAA-1705) MIC [8] [µg/mL] | Escherichia coli (ATCC 25922) MIC [9] [µg/mL] | E. coli (ATCC 25922) MBC [13] [µg/mL] | KPC (ATCC BAA-1705) MBC [14] [µg/mL] | MRSA (ATCC BAA-1556) MBC [15] [µg/mL] | PSA (ATCC 27883) MBC [16] [µg/mL] | MRSA (ATCC BAA-1556) MIC [2] [µg/mL] | PSA (ATCC 27883 MIC) [3] [µg/mL] | E. coli (ATCC 25922) MIC [4] [µg/mL] | KPC (ATCC BAA-1705) MIC [5] [µg/mL] | further results |
| --- | --- | --- | --- | --- | --- | --- | --- | --- | --- | --- | --- | --- | --- | --- |
| N=C(N)NCCC[C@@H]1NC(=O)[C@H](CCCNC(=N)N)NC(=O)[C@H](CCCNC(=N)N)NC(=O)[C@H](CCCCN)NC(=O)[C@H](Cc2c[nH]c3ccccc23)NC(=O)[C@H](Cc2c[nH]c3ccccc23)NC(=O)[C@H](Cc2c[nH]c3ccccc23)NC(=O)[C@H](Cc2c[nH]c3ccccc23)NC(=O)[C@H](CCCNC(=N)N)NC(=O)[C@H](CCCNC(=N)N)NC1=O [IFX-315, [R5W4K]] (cyclo(RRRRRWWWWK)) | 4 (≈ 2.42 µM) | 4 | 16 | 32 | 16 | – | – | – | – | – | – | – | – | MIC (peptide) ([1]; peptide alone): MIC = 16 ug/ml; FIC (peptide) [1, 17]: FIC = 4 ug/ml; MIC P. aeruginosa ATCC 27883 [3]: 16 µg/mL (≈ 9.67 µM); MIC E. coli ATCC 25922 [4]: 16 µg/mL (≈ 9.67 µM); MIC K. pneumoniae (ATCC BAA-1705) [5]: 32 µg/mL (≈ 19.3 µM); MIC (peptide) (MRSA (ATCC BAA-1556); peptide alone): MIC = 8 ug/ml; FIC (peptide) (MRSA (ATCC BAA-1556); [17]): FIC = 2 ug/ml; MIC (peptide) ([10]; peptide alone): MIC = 64 ug/ml; FIC (peptide) [10, 17]: FIC = 16 ug/ml; MIC (peptide) ([11]; peptide alone): MIC = 16 ug/ml; FIC (peptide) [11, 17]: FIC = 4 ug/ml |
| N=C(N)NCCC[C@@H]1NC(=O)[C@H](CCCNC(=N)N)NC(=O)[C@H](CCCNC(=N)N)NC(=O)[C@H](Cc2c[nH]c3ccccc23)NC(=O)[C@H](Cc2ccc3ccccc3c2)NC(=O)[C@H](Cc2ccc3ccccc3c2)NC(=O)[C@H](CCCNC(=N)N)NC1=O [IFX-031, c[Arg-Arg-Arg-Arg-NaI-NaI-Trp]] (cyclo(RRRR[2Nal][2Nal]W)) | 1.5 (≈ 1.24 µM) | 2 | 16 | 32 | 16 | – | – | – | – | – | – | – | – | HC50 (human red blood cells): 350 |
| Polymyxin B | – | – | – | – | – | – | – | – | – | – | – | – | – | MIC, MgCl2 ([12]; MH broth + 1 mM MgCl2): 1.5 µg/mL; MIC, CaCl2 ([12]; MH broth + 2 mM CaCl2): 0.7 µg/mL; MIC, NH4Cl ([12]; MH broth + 6 mM NH4Cl): 0.7 µg/mL; MIC, NaCl ([12]; MH broth + 150 mM NaCl): 0.7 µg/mL; MIC, FBS ([12]; MH broth + FBS (25%)): 0.7 µg/mL; MIC, KCl ([12]; MH broth + […] KCl): 0.7 µg/mL; MIC, MH Media ([12]; MH broth, no supplement): 0.7 µg/mL |
| N=C(N)NCCC[C@H](NC(=O)[C@H](CCCNC(=N)N)NC(=O)[C@H](CCCNC(=N)N)NC(=O)[C@@H](N)CCCNC(=N)N)C(=O)N[C@@H](CS)C(=O)N[C@@H](Cc1c[nH]c2ccccc12)C(=O)N[C@@H](Cc1c[nH]c2ccccc12)C(=O)N[C@@H](Cc1c[nH]c2ccccc12)C(=O)N[C@@H](Cc1c[nH]c2ccccc12)C(=O)N[C@@H](CS)C(=O)O [IFX-331] (H-RRRRCWWWWC-OH) | – | – | – | – | – | 32 | 128 | 32 | 265 | 16 | 128 | 32 | 64 | – |
| N=C(N)NCCC[C@H](NC(=O)[C@H](CCCNC(=N)N)NC(=O)[C@H](CCCNC(=N)N)NC(=O)[C@@H](N)CCCNC(=N)N)C(=O)N[C@H]1CSSC[C@@H](C(=O)O)NC(=O)[C@H](Cc2c[nH]c3ccccc23)NC(=O)[C@H](Cc2c[nH]c3ccccc23)NC(=O)[C@H](Cc2c[nH]c3ccccc23)NC(=O)[C@H](Cc2c[nH]c3ccccc23)NC1=O [IFX-333] (H-RRRRCWWWWC-OH; disulfide 5-10) | – | – | – | – | – | 32 | 64 | 32 | 128 | 16 | 128 | 16 | 32 | – |

From US20220289794A1, “SYNTHETIC ANTIMICROBIAL PEPTIDES” (priority 2019, published 2022)
